Test results: PMC6595003, “Insights into real-time chemical processes in a calcium sensor protein-directed dynamic library” (Nature Communications, 2019)
“And” between values parts separate entries of the source, which are not always exact repeats. Equal entries are not always repeated.

Experiments:
dNCS-1 = biological target: T1, dNCS-1 (Drosophila melanogaster, UniProt Q9VWX8); test: Protein-directed DCL, HPLC-MS relative peak area with and without dNCS-1
T1 construct: made in house; host or cells: E. coli
T1 sequence (Q9VWX8 1-187): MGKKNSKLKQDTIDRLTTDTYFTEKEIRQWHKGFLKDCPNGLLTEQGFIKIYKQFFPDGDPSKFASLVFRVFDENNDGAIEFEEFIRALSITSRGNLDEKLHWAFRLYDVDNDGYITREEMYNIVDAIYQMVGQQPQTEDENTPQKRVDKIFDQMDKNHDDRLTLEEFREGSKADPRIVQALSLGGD
Description: The reversibility of the DCL was evident, since an identical equilibrium distribution to that shown in Fig. 4a was obtained when two different starting points were employed. The observed degree of amplification was 3b > 3e ≥ 3d > 3a. The precise composition of the DCL (with and without dNCS-1), was assessed by measuring the relative peak area (RPA). Indeed, the normalized change of RPA was used to quantify the protein influence in the final outcome (Supplementary Figs. 9, 10 and Supplementary Tables 1, 2 and 3)[28]. […] Note that compounds 3a–3e can exist as E/Z isomers of the C = N bond. […].
Aldehyde 1 (1.2 μL, 50 mM, DMSO), the five acylhydrazides 2a–2e (5 × 3.6 μL, 50 mM, DMSO), p-anisidine (1 μL, 12 M, DMSO) and buffer 20 mM Tris, 0.5 M NaCl and 1 mM CaCl2, 1 mM DTT at pH 7.4 (750 μL) in 3.3 % DMSO. The mixture was stabilized in 5 h at 4 °C. HPLC analysis was performed.
Aldehyde 1 (1.2 μL, 50 mM, DMSO), the five acylhydrazides 2a–2e (5 × 3.6 μL, 50 mM, DMSO), p-anisidine (1 μL, 12 mM, DMSO) and dNCS-1 in buffer 20 mM Tris, 0.5 M NaCl and 1 mM CaCl2, 1 mM DTT at pH 7.4 (66.7 μM, 750 μL, 1 eq.). The experiment is in 3.3% DMSO. The mixture was stabilized for 5 h at 4 °C. Then, dNCS-1 was removed by ultrafiltration using an Amicon Ultra filter (0.5–10 KDa). HPLC analysis was performed and the traces were compared with the blank composition.
Supplementary Figure 9. Relative Peak Area of the DCL with and without dNCS1. Aldehyde
1 (1.2 µL, 50 mM), 2a-e (3.6 µL, 50 mM), catalyst (1 µL, 12 M), dNCS-1:1 [1:1], tris buffer (20
mM, pH 7.4), 1 mM CaCl2, 0.5 M NaCl, 1 mM DTT, T = 4 °C, 2% DM SO. Mean relative peak
area (RPA) of each acylhydrazone of the library in the absence (blank) and presence of dNCS-1.
Error bars indicate standard deviation (SD) over three experiments. The calculation is set by the
sum of all peak areas to 100% and assigning each peak its percentage. Source data are provided
R P A N o rm aliz ed V a riation
Supplementary Figure 10. RPA normalized of variation of DCL with and without dNCS1.
Aldehyde 1 (1.2 µL, 50 mM), 2a-e (3.6 µL, 50 mM), catalyst (1 µL, 12 M), dNCS-1:1 [1:1], tris
buffer (20 mM, pH 7.4), 1 mM CaCl2, 0.5 M NaCl, 1 mM DTT, T = 4 °C, 2% DM SO. Error
bars indicate SD over three experiments. Source data are provided as a Source Data file.

[1] = commercial drugs; ref 5 (Hou et al., 2004); cited from earlier work
[2] = Parallel artificial membrane permeability assay (PAMPA-BBB); assay type: in vitro ADME; conditions: for Pe (10-6 cm s-1) Experimental 1 / Pe (10-6 cm s-1) Experimental 2 / Pe (10-6 cm s-1) Experimental 3: source data; for Papp at 2.5 h: pig, PAMPA-BBB, pH 7.4, 5% DMSO, 2 h 30 min at 25 °C, mean ± SD, read-out: Pe, in vitro permeability
Description: The PAMPA methodology is a high-throughput technique to predict passive permeability through biological membranes that employs a brain lipid porcine as membrane. […]
From this equation and following the pattern established in the literature for BBB permeation prediction2 we could classify compounds as CNS + when they present a permeability > 4.50 x 10-6 cm s-1. Source data are provided as a Source Data file. […]
Parallel artificial membrane permeability assays. Prediction of the brain penetration was evaluated using a parallel artificial membrane permeability assay (PAMPA).4 Ten commercial drugs, phosphate buffer saline solution at pH 7.4 (PBS). DMSO and dodecane were purchased from Sigma, Across organics, Aldrich and Fluka. The porcine […]
plate was a 96-well filtrate plate (Multiscreen® IP Sterile Plate PDVF membrane, pore […]
MAIPS4510) and the acceptor plate was an indented 96-well plate (Multiscreen®, catalog no. MAMCS9610) both from Millipore. Filter PDVF […]
membrane units (diameter 30 mm, pore size 0.45 µm) from Symta were used to filter the samples. A 96-well plate UV reader (Thermoscientific, Multiskan spectrum) was used for the UV measurements.

NCS-1/Ric8a interaction = tested on: NCS-1/Ric8a interaction; set-up: method as in PMID 28119500, PMID 29966094; conditions: cited from earlier work

O=C(N/N=C/c1ccc([N+](=O)[O-])c(O)c1)c1cccs1 [3e]
RPA, Blank DCL (dNCS-1; as fraction of total area): 0.3277 | RPA, Templated DCL (dNCS-1; as fraction of total area, with dNCS-1): 0.4342 | RPA (%) with protein (templated DCL) (dNCS-1; relative peak area in presence of dNCS-1): 43.4% and 43.4187% | RPA (%) without protein (blank DCL) (dNCS-1; relative peak area, sum of all peak areas set to 100%): 32.8% and 32.7742% | RPA (%), Blank DCL (dNCS-1; sheet Supplementary Figure 10): 32.8% | RPA (%), Templated DCL (dNCS-1; sheet Supplementary Figure 10, with dNCS-1): 43.4%

CC(=O)Oc1ccccc1C(=O)O [Aspirin]
Experimental log S [1]: -1.72

CCOC(=O)c1ccc(N)cc1 [Benzocaine]
Experimental log S [1]: -2.32

Cn1c(=O)c2c(ncn2C)n(C)c1=O [Caffeine]
Pe (10-6 cm s-1) Experimental 1 [2]: 1.3 10-6 cm s-1 | Pe (10-6 cm s-1) Experimental 2 [2]: 0.87 10-6 cm s-1 | Pe (10-6 cm s-1) Experimental 3 [2]: 1.70 10-6 cm s-1

CCOP(=S)(OCC)Oc1nc(Cl)c(Cl)cc1Cl [Chlorpyriphos]
Experimental log S [1]: -5.49

CNCCCN1c2ccccc2CCc2ccccc21 [Desipramine]
Pe (10-6 cm s-1) Experimental 2 [2]: 16.20 10-6 cm s-1 | Pe (10-6 cm s-1) Experimental 3 [2]: 13.70 10-6 cm s-1

CN(C)C(=O)Nc1ccc(Cl)c(Cl)c1 [Diuron]
Experimental log S [1]: -3.80

CCn1cc(C(=O)O)c(=O)c2cc(F)c(N3CCNCC3)nc21 [Enoxacin]
Pe (10-6 cm s-1) Experimental 1 [2]: 1.4 10-6 cm s-1 | Pe (10-6 cm s-1) Experimental 2 [2]: 1.30 10-6 cm s-1 | Pe (10-6 cm s-1) Experimental 3 [2]: 1.47 10-6 cm s-1

O=C(CN1CCCCC1)NN1c2ccccc2Sc2ccccc21 [FD44]
reported inhibition of the NCS-1/Ric8a interaction (NCS-1/Ric8a interaction): strong

O=C(CC(c1ccccc1)c1ccccc1)Nc1nc2ccccc2s1 [IGS-1.76]
reported inhibition of the NCS-1/Ric8a interaction (NCS-1/Ric8a interaction): strong

Cl[C@H]1[C@H](Cl)[C@@H](Cl)[C@@H](Cl)[C@H](Cl)[C@H]1Cl [Lindane]
Experimental log S [1]: -4.64

CCOC(=O)CC(SP(=S)(OC)OC)C(=O)OCC (stereo not shown) [Malathion]
Experimental log S [1]: -3.37

O=C1CN(/N=C/c2ccc([N+](=O)[O-])o2)C(=O)N1 [Nitrofurantoin]
Experimental log S [1]: -3.47

CCOP(=S)(OCC)Oc1ccc([N+](=O)[O-])cc1 [Parathion]
Experimental log S [1]: -4.66

O=C1OC(c2ccc(O)cc2)(c2ccc(O)cc2)c2ccccc21 [Phenolpthalein]
Experimental log S [1]: -2.60

O=C1NC(=O)C(c2ccccc2)(c2ccccc2)N1 [Phenytoin]
Experimental log S [1]: -3.99

CN1C(C(=O)Nc2ccccn2)=C(O)c2ccccc2S1(=O)=O [Piroxicam]
Papp at 2.5 h [2]: 1.3 ± 0.2 ×10⁻⁶ cm/s | Pe (10-6 cm s-1) Experimental 1 [2]: 1.3 10-6 cm s-1 | Pe (10-6 cm s-1) Experimental 2 [2]: 1.16 10-6 cm s-1 | Pe (10-6 cm s-1) Experimental 3 [2]: 1.44 10-6 cm s-1

CN(C)CCCN1c2ccccc2Sc2ccccc21 [Promazine]
Papp at 2.5 h [2]: 9.5 ± 0.6 ×10⁻⁶ cm/s | Pe (10-6 cm s-1) Experimental 1 [2]: 9.5 10-6 cm s-1 | Pe (10-6 cm s-1) Experimental 2 [2]: 9.04 10-6 cm s-1 | Pe (10-6 cm s-1) Experimental 3 [2]: 9.94 10-6 cm s-1
